Columns and labels:
[1] = Binding of .NO by NOX-100 in the presence of a metal ion; conditions: in the presence of a metal ion (e.g., iron)
Source text: As illustrated in Scheme 1 following, the binding is a two-step process. First, two molecules of NOX-100 combine with Fe^2+ to form a complex, [(NOX)2-Fe], which is held together via the planar coordination of the Fe^2+ by two dithiocarbamates. Next, the [(NOX)2-Fe] complex tightly binds .NO, forming an .NO-containing complex, [(NOX)2-Fe—NO]. See e.g., Yokokawa et al, 1995, Id.; Kang et al, 1997, Id.

albino rats = assay: Single dose infusion toxicity in albino rats; format: in vivo; conditions: single dose 1000, 1450 or 2000 mg/kg infused over 2 or 8 hours
Experimental: Based on the preliminary I.V. and S.C. studies, doses of 1000, 1450 or 2000 mg/kg of NOX-100 administered over an 8-hour period were tested in albino rats. A total dose of 2000 mg/kg administered over a shorter period of 2 hours was then tested.

[2] = Preliminary intravenous pharmacokinetics in mice; format: in vivo, mouse; conditions: bolus injection 30 mg/kg i.v.
Experimental: (§1) The pharmacokinetics of intravenously administered NOX-100 was evaluated in mice, rats and dogs. Preliminary pharmacokinetic studies were conducted using a bolus injection of 30 mg/kg. Post injection, the drug was rapidly eliminated in all three species in a bi-exponential manner with a beta-t½ of approximately 6, 30 and 40 minutes in the mouse, rat and dog, respectively. […] The volume of distribution was around 20-30% of body weight and was similar in the three species. This is likely due to the hydrophilic nature of the drug and may reflect the distribution of NOX-100 primarily in the extracellular space.

[3] = Preliminary intravenous pharmacokinetics in dogs; format: in vivo, dog; conditions: bolus injection 30 mg/kg i.v.
Experimental: as §1

Crj:CD(SD)IGS rats (SPF) = assay: Four-week repeated dose intravenous toxicity study in rats with two-week recovery; format: in vivo, rat
Experimental: The objective of this study was to investigate the toxicity of NOX-100 when administered as a single intravenous injection once daily for four consecutive weeks to Sprague-Dawley (SPF) rats and to determine the reversibility of changes which were established as treatment related.
NOX-100 was administered intravenously as a daily single dose (“pulse”) (40 mL/kg) at doses of 100, 500, and 2000 mg/kg/day for four weeks in Crj:CD(SD)IGS rats (SPF). The Control group was treated with saline (n=60 rats per gender−balanced randomization across all groups.) Following termination of treatment, an additional group of rats in the Control and highest dose group were held for a period of two weeks in order determine if the potential treatment related changes were reversible.

beagle dogs = assay: Four-week repeated dose intravenous toxicity study in beagle dogs with two-week recovery; format: in vivo, dog
Experimental: The objective of this study was to investigate the toxicity of NOX-100 when administered as a single intravenous injection once daily for four consecutive weeks to beagle dogs and to determine the reversibility of changes which were established as treatment related. In addition, the systemic exposure of the animals to the test substance was determined and evaluated for correlation with dose and time after starting treatment.
NOX-100 was administered intravenously as a daily single dose (20 mL/kg administered over approximately 2.5 minutes) of 100, 300, and 1000 mg/kg for four weeks in Beagle dogs (n=17 dogs per gender−unbalanced randomization across treated groups). Following the termination of treatment, an additional group of dogs in the Control and highest dose group were held for a period of two weeks in order to determine if the potential treatment related changes were reversible.

[4] = tested on: subjects with hypotensive episodes during hemodialysis; assay: Human clinical dose escalation study in hemodialysis subjects with hypotensive episodes; format: in vivo
Source text: In that study, the drug was given to subjects who had at least 3 hypotensive episodes during hemodialysis in the prior month. Subjects received the drug during hemodialysis when systolic blood pressure (SBP) had fallen at least 15 mmHg. The following trends appeared between drug and placebo periods. […] The SBP over this time period averaged 4 mmHg higher for drug than for placebo with a standard deviation of 16 mmHg. […] As hypotension worsened, the patients developed several different symptoms that were not predictable for any given patient. Clinical interventions intended to relieve hypotension were also variable and were applied at inconsistent times from patient to patient. This was a result of long standing practices established by patient and nurse to avoid severe symptoms. For example, patients would sometimes request an intervention that they thought would be helpful and nurses would sometimes institute an intervention when they thought that a blood pressure trend might soon lead to symptoms. It was felt unethical to intervene in this process, since the aim was to avoid patient discomfort.

[5] = Pharmacokinetics after bolus administration in hemodialysis subjects; format: in vivo, human
Source text: FIG. 1 depicts the results of plasma Cmax of NOX-100 after bolus administration in hemodialysis subjects as a function of dose. See Example 4.
FIG. 2 depicts the results of Area Under the Curve (AUC) of NOX-100 after bolus administration in hemodialysis subjects as a function of dose. See Example 4.
FIG. 3 depicts a histogram of plasma clearance of NOX-100 during dialysis after bolus administration in hemodialysis subject as a function of dose. Legend (x-axis, left to right): 0.33, 1, 3, 9, 25 and 50, mg/kg NOX-100. See Example 4.

[6] = both, beagle, dog, in vivo, 4 weeks

CN(C[C@H](O)[C@@H](O)[C@H](O)[C@H](O)CO)C(=S)S [NOX-100, N-methyl-D-glucamine dithiocarbamate]
binding of .NO [1]: binds .NO very tightly | mortality (albino rats): no mortality | half-life ([2]; in vivo, iv, mouse, read-out: beta-t½): ~6 min | volume of distribution ([2]; mice): 20-30 % of body weight | clearance ([2]; mouse, in vivo, iv, mice, read-out: clearance rate): 26 mL/min/kg | clearance ([3]; dog, in vivo, iv, dogs, read-out: clearance rate): 4.1 ± 0.6 mL/min/kg | volume of distribution ([3]; dogs): 20-30 % of body weight | half-life ([3]; in vivo, iv, dog, read-out: beta-t½): ~40 min | food consumption or body weight gain versus Control (Crj:CD(SD)IGS rats (SPF); rat, in vivo): no significant differences | ophthalmological examinations (Crj:CD(SD)IGS rats (SPF); rat, in vivo): No changes | reversibility after a two week period of bladder mucosal hyperplasia, proximal tubule basophilia and renal papillary edema (Crj:CD(SD)IGS rats (SPF); rat, in vivo): could not be confirmed | reversibility of urinary bladder change (Crj:CD(SD)IGS rats (SPF); rat, in vivo): no clear-cut reversibility | blood sodium, chloride and albumin (Crj:CD(SD)IGS rats (SPF); rat, in vivo, 2000 mg/kg): increased | cholesterol level (Crj:CD(SD)IGS rats (SPF); rat, in vivo, 2000 mg/kg): increased | hemoglobin (Crj:CD(SD)IGS rats (SPF); rat, in vivo, 2000 mg/kg): decrease | no adverse effect level (Crj:CD(SD)IGS rats (SPF); rats, daily single i.v. dose, four weeks): 100 mg/kg | clinical observation: salivation (beagle dogs; [6]): salivation in the 1000 mg/kg group | clinical observation: vomiting (beagle dogs; [6]): vomiting in the 100 mg/kg or higher dose groups | body weight, food consumption, hematology, EKG, ophthalmology or organ weights (beagle dogs; dog, in vivo): no changes | gender related difference in systemic exposure (beagle dogs; dog, in vivo): no gender related difference | incidence of vomiting after dosing, Treated groups versus group not dosed (beagle dogs; dog, in vivo): higher | microscopic changes due to study substance (beagle dogs; dog, in vivo): no microscopic changes | reversibility of other changes (beagle dogs; dog, in vivo): reversed completely or showed a tendency for reversal | site of main toxicological findings (beagle dogs; dog, in vivo): kidneys and urinary bladder | systemic exposure (blood levels) versus dose (beagle dogs; dog, in vivo): linear dose dependent increase | urine specific gravity and urine volume (beagle dogs; dog, in vivo): decrease in specific gravity and increase in urine volume | histopathological examination: pelvic mucosa and urinary bladder (beagle dogs; dog, in vivo, 1000 mg/kg): Inflammatory cell infiltration in the pelvic mucosa, and erosion of mucosa in the urinary bladder | kidney histopathology of the moribund animal (beagle dogs; dog, in vivo, 1000 mg/kg): moderate basophilia of the proximal renal tubules, pelvic mucosal epithelial hyperplasia, hyaline droplets in the proximal tubular epithelium and pelvic mucosal epithelium in the kidneys | laboratory determinations of sodium (beagle dogs; dog, in vivo, 1000 mg/kg): increased | laboratory results on the day of necropsy, moribund animal (beagle dogs; dog, in vivo, 1000 mg/kg): an increased white cell count with increased segmented neutrophils and an increase in gamma GT, ALP, urea nitrogen, creatinine, glucose, cholesterol, phospholipids, triglyceride, total protein, albumin, inorganic phosphorus and magnesium and a decrease in sodium and chloride | moribundity (beagle dogs; dog, in vivo, 1000 mg/kg): became moribund six days after starting treatment | necropsy organ weights of the moribund animal (beagle dogs; dog, in vivo, 1000 mg/kg): increased absolute and relative weight of the liver, kidneys and adrenals with a decrease noted in the thymus weight | other histopathological findings in the moribund animal (beagle dogs; dog, in vivo, 1000 mg/kg): follicular atrophy of the mesenteric lymph node, acute atrophy of the thymus, glycogen accumulation in the liver, erosion of mucosa in the urinary bladder, and hypertrophy of cortical cells in the fascicular zone of the adrenals | renal papilla of the moribund animal (beagle dogs; dog, in vivo, 1000 mg/kg): for the most part necrotic | no adverse effect level (beagle dogs; dogs, pulse IV injection daily, four weeks): less than 100 mg/kg | clinical signs in the moribund animal (beagle dogs; male, beagle, dog, in vivo, 1000 mg/kg): vomiting occurred on Days 1 to 6, no stools were passed on Days 4 to 6, decreased locomotor activity was noted on Days 5 to 6 and hypothermia and lateral position was noted on Day 6 | clinically significant toxicity ([4]; 7 dose escalations, 4 subjects per group): did not reveal any clinically significant toxicity at any dose | average SBP difference, drug higher than placebo ([4]; 30 to 120 minutes following drug administration, standard deviation 16 mmHg): 4 mmHg | heart rate, diastolic blood pressure, number of interventions for low blood pressure or number of symptoms, drug versus placebo periods ([4]; hemodialysis subjects): no apparent differences | systolic blood pressure (SBP), drug versus placebo ([4]; three highest doses, 30 to 120 minutes following drug administration): trend for SBP to be higher after drug than after placebo | plasma clearance during dialysis versus dose ([5]; 0.33-50 mg/kg, FIG. 3): decreased slightly with higher doses but the difference was not statistically significant | plasma Cmax versus dose ([5]; bolus administration, hemodialysis subjects, FIG. 1): proportional to the dose | Area Under the Curve (AUC) versus dose ([5]; bolus administration, hemodialysis subjects, FIG. 2): proportional to the dose | clearance ([5]; human, plasma, intravenous, averaged clearance from the 1, 9, and 50 mg/kg cohorts, read-out: plasma clearance during dialysis): ~3.3 mL/min/kg

From US20140350097A1, “TREATMENT OF HYPOTENSION ASSOCIATED WITH HEMODIALYSIS” (priority 2013, published 2014)
